Columns and labels:
[1] = system: Human brain microvascular endothelial cerebral cells (HBMEC); test: Toxicity of human Aβ1-42 peptide on HBMEC: total length of capillary network; type: cell-based; settings: Aβ1-42 2.5 μM; single drugs at the concentrations used in the combination
Method: Human brain microvascular endothelial cell cultures were used to study the protection afforded by candidate compound(s) on Aβ1-42 toxicity.
Human brain microvascular endothelial cerebral cells (HBMEC, ScienCell Ref: 1000, frozen at passage 10) were rapidly thawed in a waterbath at +37° C. The supernatant was immediately put in 9 ml Dulbecco's modified Eagle's medium (DMEM; Pan Biotech ref: P04-03600) containing 10% of foetal calf serum (FCS; GIBCO ref 10270-106). […]
• Negative Control: medium alone+0.1% DMSO • Intoxication: amyloid-β1-42 (2.5 μM) for 18 h • Positive control: VEGF-165 (10 nM) (1 reference compound/culture) 1 hr before the Aβ1-42 (2.5 μM) addition for a 18 h incubation time. • Test compounds: Test compound(s) 1 hr before the Aβ1-42 (2.5 μM) addition for a 18 h incubation time. Capillary Network Quantification
Per well, 2 pictures with 4× lens were taken using InCell Analyzer™ 1000 (GE Healthcare) in light transmission. […] The total length of capillary network was assessed.
Data were expressed in percentage of control conditions (no intoxication, no amyloid=100%) in order to express the amyloid injury. All values were expressed as mean+/−SEM (s.e.mean) of the 3 cultures (n=6 wells per condition). […]

[2] = system: rat primary cortical cells; test: Toxicity of human Aβ1-42 peptide on primary cortical neuron cells: LDH release; type: cell-based; settings: for effect on Aβ1-42 intoxication, LDH release (in words): Aβ1-42 10 μM, single drugs at the concentrations used in the combination
Method: Rat cortical neurons were cultured as described by Singer et al. (47). Briefly pregnant female rats of 15 days gestation were killed by cervical dislocation (Rats Wistar) and the foetuses were removed from the uterus. The cortex was removed and placed in ice-cold medium of Leibovitz (L15) containing 2% of Penicillin 10.000 U/ml and Streptomycin 10 mg/ml and 1% of bovine serum albumin (BSA). Cortexes were dissociated by trypsin for 20 min at 37° C. (0.05%). The reaction was stopped by the addition of Dulbecco's modified Eagle's medium (DMEM) containing DNasel grade II and 10% of foetal calf serum (FCS). Cells were then mechanically dissociated by 3 serial passages through a 10 ml pipette and centrifuged at 515×g for 10 min at +4° C. The supernatant was discarded and the pellet of cells was re-suspended in a defined culture medium consisting of Neurobasal supplemented with B27 (2%), L-glutamine (0.2 mM), 2% of PS solution and 10 ng/ml of BDNF. Viable cells were counted in a Neubauer cytometer using the trypan blue exclusion test. The cells were seeded at a density of 30 000 cells/well in 96 well-plates (wells were pre-coated with poly-L-lysine (10 μg/ml)) and were cultured at +37° C. in a humidified air (95%)/CO2 (5%) atmosphere.
Briefly, Aβ1-42 peptide was reconstituted in define culture medium at 40 μM (mother solution) and was slowly shaken at +37° C. for 3 days in dark. The control medium was prepared in the same conditions.
After 10 days of neuron culture, test compounds were solved in culture medium (+0.1% DMSO) and then pre-incubated with neurons for 1 hour before the Aβ1-42 application (in a final volume per culture well of 100 μl). One hour after test compound(s) incubation, 100 μl of Aβ1-42 peptide was added to a final concentration of 10 μM diluted in presence of drug(s), in order to avoid further test compound(s) dilutions. Cortical neurons were intoxicated for 24 hours. Three separate cultures were performed per condition, 6 wells per condition.
BDNF (50 ng/ml) and Estradiol-β (150 nM) were used as positive control and reference compounds respectively. Three separate cultures will be performed per condition, 12 wells per condition.
Estradiol-β at 150 nM was used as a positive control (FIG. 4).
Estradiol-β was solved in culture medium and pre-incubated for 1 h before the amyloid-β1-42 application.
The following conditions were assessed: • CONTROL PLAQUE: 12 wells/condition • Negative Control: medium alone+0.1% DMSO • Intoxication: amyloid-β1-42 (10 μM) for 24 h • Reference compound: Estradiol (150 nM) 1 hr. • DRUG PLATE: 6 wells/condition • Negative Control: medium alone+0.1% DMSO • Intoxication: amyloid-β1-42 (10 μM) for 24 h • Test compound(s): test compound(s)—1 hr followed by amyloid-β1-42 (10 μM) for 24 h Lactate Dehydrogenase (LDH) Activity Assay
24 hours after intoxication, the supernatant was taken off and analyzed with Cytotoxicity Detection Kit (LDH, Roche Applied Science, ref: 11644793001, batch: 11800300). This colorimetric assay for the quantification of cell toxicity is based on the measurement of lactate dehydrogenase (LDH) activity released from the cytosol of dying cells into the supernatant.
Data were expressed in percentage of control conditions (no intoxication, no amyloid=100%) in order to express the amyloid injury. All values were expressed as mean+/−SEM (s.e.mean) of the 3 cultures (n=6 wells per condition). Statistic analyses were done on the different conditions (ONE-WAY ANOVA followed by the Dunnett's test when it was allowed, Statview software version 5.0).

CC(=O)NCCCS(=O)(=O)O [Acamprosate]
effect on Aβ1-42 intoxication, total length of capillary network (in words) [1]: no significant effect | prevention of Aβ1-42 intoxication by pre-treatment ([2]; 8 nM): 99% | effect on Aβ1-42 intoxication, LDH release (in words) [2]: no significant effect

NCC(CC(=O)O)c1ccc(Cl)cc1 (centres unmarked) [Baclofen]
effect on Aβ1-42 intoxication, total length of capillary network (in words) [1]: no significant effect | effect on Aβ1-42 intoxication, LDH release (in words) [2]: no significant effect

From patent US8741886B2, “Baclofen and acamprosate based therapy of neurological disorders” (Pharnext, priority 2011, dated 2014)
